Laboratory results: patent publication US20130273656A1, “METHOD TO INCREASE GENE TARGETING FREQUENCY” (Regents of the University of Minnesota, priority 2010, published 2013)
“Also recorded” adds a separate entry of the source.

Tests used:
[1] = test system: HCT116 cells; experiment: rAAV-mediated gene targeting of the CCR5 locus in HCT116 cells, correct targeting scored by diagnostic PCR of G418-resistant clones; format: cell-based, human
Protocol: The human colon cancer cell line HCT116 was obtained from the American Type Culture Collection and maintained in McCoy's 5A media (Mediatech Inc.) containing 10% heat inactivated fetal calf serum (Cambrex), 2 mM L-glutamine, 100 U/ml penicillin and […] streptomycin (Invitrogen). The cells were grown at 37° C. in a humidified incubator with 5% CO2. Cell lines derived from correct targeting events were grown either in the presence of 1 mg/ml G418 or 1 μg/mL puromycin.
The targeting vectors, Ku70-Neo (Fattah et al., DNA Repair, 2008, 7:762-774) and CCR5-Neo (Fattah et al., PNAS, 2008, 105:8703-8708), were constructed by using the rAAV system as described (Kohli et. al., Nucl. Acids Res., 2004, 32:e3). All virus packaging and infections were performed as described (Kohli et. al., Nucl. Acids Res., 2004, 32:e3).
Genomic DNA for PCR screening was isolated by using phenol extraction followed by ethanol precipitation. DNA-PKcs- and CCR5-targeting events were identified by PCR using conditions described elsewhere (Ruis et. al., Mol. Cell. Biol., 2008, 28:6182-6195; Kohli et. al., Nucl. Acids Res., 2004, 32:e3). The primers used to screen for DNA-PKcs targeting events were LArmR, […] (SEQ ID NO:5) and PKcs81-83F1, […]. (SEQ ID NO:6) The primers used to screen for CCR5 targeting events were CF, GCACCATGCTTGACCCAG (SEQ ID NO:7) and NR, […] (SEQ ID NO:8). […]

[2] = target: T1, DNA-PK complex (Homo sapiens, UniProt P78527); experiment: DNA-PK complex kinase activity in extracts of treated cells, standard p53 peptide assay; format: cell-based; settings: HCT116 cells treated with 10 μM at time 0 and at 4 hr post-infection
T1 construct: whole cell extracts were prepared from a portion of the cells and assayed for DNA-PK complex kinase activity; endogenous in cells; host or cells: HCT116 (controls: MO59J, MO59K)
Protocol: Nuclear extracts were incubated on ice for 15 min with preswollen dsDNA-cellulose (Sigma). Nuclear extract (100 μg) was used with each sample. Following incubation on ice, the samples were washed twice in Z′ 0.05 buffer (25 mM HEPES-KOH, 50 mM KCl, 10 mM MgCl2, 20% glycerol, 0.1% IGEPAL™, 1 mM dithiothreitol). After the washing steps, the samples were centrifuged and the precipitate was resuspended in 100 μl Z′ 0.05 buffer. […] The wild-type peptide can be phosphorylated by DNA-PK at the serine residue, while the mutant peptide is not recognized by DNA-PK. Following incubation, polyacrylamide gel electrophoresis was carried out. The gel was vacuum dried and exposed to X-ray film. The amount of phosphorylated peptide was quantified using a phosphorimager.

## O=c1cc(N2CCOCC2)oc2c(-c3cccc4c3sc3ccccc34)cccc12 [NU7441, 8-dibenzothiophen-4-yl-2-morpholin-4-yl-chromen-4-one]
[1]; DNA-PKcs kinase inhibition by NU7441, rAAV CCR5 vector, compared to wild-type cells
  increase of frequency of gene targeting: ~7 fold
[1]; HCT116, 10 μM NU7441 at time 0 and again at 4 hr post-infection, rAAV CCR5 vector, 17 of 229 G418-resistant clones
  correct gene targeting frequency: 7.4%
[2]
  duration of DNA-PK / DNA-PKcs inhibition: a matter of hours; also recorded: several hours
[2]; whole cell extracts
  DNA-PK activity: nearly completely ablated
